Source: paper PMC10707982, “Solubility and Thermodynamics Data of Cabozantinib Malate in Various Aqueous Solutions of Dimethyl Sulfoxide at Different Temperatures” (Molecules, 2023)

Experiments:
[1] = Activity coefficients (γi = xidl/xe) of CBZM; format: physicochemical
Source text: The data for Tfus, ΔHfus, and ΔCp for CBZM were collected from Ref. [20], and they are 462.72 K, 56.93 kJ mol^−1, and 123.03 J mol^−1 K^−1, respectively. Now, Equation (2) was used to determine the xidl values for CBZM. The γi values for CBZM in all cosolvent combinations and pure solvents were obtained using Equation (3):(3) γi=xidl/xe

[2] = Apparent thermodynamic analysis of CBZM dissolution (van't Hoff and Gibbs equations) and enthalpy–entropy compensation; format: physicochemical
Procedure: All of the CBZM’s apparent thermodynamic properties were determined at Thm. The reported equation was used to determine the Thm. Then, 308 K was calculated as the Thm for CBZM. Several thermodynamic parameters were obtained via an apparent thermodynamic analysis. These parameters were computed using the van’t Hoff and Gibbs equations. Using Equation (12) and Thm = 308 K, the ΔsolH^0 data for CBZM in cosolvent mixtures and pure solvents were calculated:(12) ∂ln xe/∂1/T−1/ThmP=−ΔsolH^0/R
The ΔsolH^0 for CBZM was obtained by the plotted van’t Hoff curves between ln xe of CBZM and 1/T−1/Thm .
Furthermore, at Thm = 308 K, the ΔsolG^0 for CBZM in cosolvent combinations and pure solvents was derived utilizing the Krug et al. approach by Equation (13):(13) ΔsolG^0=−RThm×intercept where the intercept values for CBZM in cosolvent combinations and pure solvents were calculated using the van’t Hoff plots depicted in Figure 5.
By Equation (14), the ΔsolS^0 for CBZM in cosolvent mixtures and neat solvents was derived:(14) ΔsolS^0=ΔsolH^0−ΔsolG^0/Thm
An enthalpy–entropy compensation analyses was performed, as previously described, to assess the solvation behavior of CBZM in cosolvent mixtures and neat solvents. Weighted curves of ΔsolH° vs. ΔsolG° were constructed at Thm = 308 K for this experiment.

[3] = DMSO mass fraction m = 0.0, Thm = 308 K
[4] = DMSO mass fraction m = 0.1, Thm = 308 K
[5] = DMSO mass fraction m = 0.2, Thm = 308 K
[6] = DMSO mass fraction m = 0.3, Thm = 308 K
[7] = DMSO mass fraction m = 0.4, Thm = 308 K
[8] = DMSO mass fraction m = 0.5, Thm = 308 K
[9] = DMSO mass fraction m = 0.6, Thm = 308 K
[10] = DMSO mass fraction m = 0.7, Thm = 308 K
[11] = DMSO mass fraction m = 0.8, Thm = 308 K
[12] = DMSO mass fraction m = 0.9, Thm = 308 K
[13] = DMSO mass fraction m = 1.0, Thm = 308 K

SMILES: COc1cc2nccc(Oc3ccc(NC(=O)C4(C(=O)Nc5ccc(F)cc5)CC4)cc3)c2cc1OC [CBZM, Cabozantinib malate]
- Activity coefficient (γi) ([1]; DMSO mass fraction m = 0.0, T = 298.2 K): 6703
- Activity coefficient (γi) ([1]; DMSO mass fraction m = 0.0, T = 303.2 K): 5689
- Activity coefficient (γi) ([1]; DMSO mass fraction m = 0.0, T = 308.2 K): 5044
- Activity coefficient (γi) ([1]; DMSO mass fraction m = 0.0, T = 313.2 K): 4739
- Activity coefficient (γi) ([1]; DMSO mass fraction m = 0.0, T = 318.2 K): 4597
- Activity coefficient (γi) ([1]; DMSO mass fraction m = 0.1, T = 298.2 K): 2011
- Activity coefficient (γi) ([1]; DMSO mass fraction m = 0.1, T = 303.2 K): 1712
- Activity coefficient (γi) ([1]; DMSO mass fraction m = 0.1, T = 308.2 K): 1608
- Activity coefficient (γi) ([1]; DMSO mass fraction m = 0.1, T = 313.2 K): 1542
- Activity coefficient (γi) ([1]; DMSO mass fraction m = 0.1, T = 318.2 K): 1538
- Activity coefficient (γi) ([1]; DMSO mass fraction m = 0.2, T = 298.2 K): 605.5
- Activity coefficient (γi) ([1]; DMSO mass fraction m = 0.2, T = 303.2 K): 550.8
- Activity coefficient (γi) ([1]; DMSO mass fraction m = 0.2, T = 308.2 K): 521.3
- Activity coefficient (γi) ([1]; DMSO mass fraction m = 0.2, T = 313.2 K): 517.5
- Activity coefficient (γi) ([1]; DMSO mass fraction m = 0.2, T = 318.2 K): 518.0
- Activity coefficient (γi) ([1]; DMSO mass fraction m = 0.3, T = 298.2 K): 187.7
- Activity coefficient (γi) ([1]; DMSO mass fraction m = 0.3, T = 303.2 K): 173.5
- Activity coefficient (γi) ([1]; DMSO mass fraction m = 0.3, T = 308.2 K): 167.9
- Activity coefficient (γi) ([1]; DMSO mass fraction m = 0.3, T = 313.2 K): 169.7
- Activity coefficient (γi) ([1]; DMSO mass fraction m = 0.3, T = 318.2 K): 174.4
- Activity coefficient (γi) ([1]; DMSO mass fraction m = 0.4, T = 298.2 K): 56.40
- Activity coefficient (γi) ([1]; DMSO mass fraction m = 0.4, T = 303.2 K): 55.14
- Activity coefficient (γi) ([1]; DMSO mass fraction m = 0.4, T = 308.2 K): 55.29
- Activity coefficient (γi) ([1]; DMSO mass fraction m = 0.4, T = 313.2 K): 56.55
- Activity coefficient (γi) ([1]; DMSO mass fraction m = 0.4, T = 318.2 K): 59.49
- Activity coefficient (γi) ([1]; DMSO mass fraction m = 0.5, T = 298.2 K): 17.42
- Activity coefficient (γi) ([1]; DMSO mass fraction m = 0.5, T = 303.2 K): 17.07
- Activity coefficient (γi) ([1]; DMSO mass fraction m = 0.5, T = 308.2 K): 17.69
- Activity coefficient (γi) ([1]; DMSO mass fraction m = 0.5, T = 313.2 K): 18.40
- Activity coefficient (γi) ([1]; DMSO mass fraction m = 0.5, T = 318.2 K): 19.80
- Activity coefficient (γi) ([1]; DMSO mass fraction m = 0.6, T = 298.2 K): 5.281
- Activity coefficient (γi) ([1]; DMSO mass fraction m = 0.6, T = 303.2 K): 5.524
- Activity coefficient (γi) ([1]; DMSO mass fraction m = 0.6, T = 308.2 K): 5.800
- Activity coefficient (γi) ([1]; DMSO mass fraction m = 0.6, T = 313.2 K): 6.266
- Activity coefficient (γi) ([1]; DMSO mass fraction m = 0.6, T = 318.2 K): 6.776
- Activity coefficient (γi) ([1]; DMSO mass fraction m = 0.7, T = 298.2 K): 1.609
- Activity coefficient (γi) ([1]; DMSO mass fraction m = 0.7, T = 303.2 K): 1.699
- Activity coefficient (γi) ([1]; DMSO mass fraction m = 0.7, T = 308.2 K): 1.853
- Activity coefficient (γi) ([1]; DMSO mass fraction m = 0.7, T = 313.2 K): 2.023
- Activity coefficient (γi) ([1]; DMSO mass fraction m = 0.7, T = 318.2 K): 2.267
- Activity coefficient (γi) ([1]; DMSO mass fraction m = 0.8, T = 298.2 K): 0.4851
- Activity coefficient (γi) ([1]; DMSO mass fraction m = 0.8, T = 303.2 K): 0.5430
- Activity coefficient (γi) ([1]; DMSO mass fraction m = 0.8, T = 308.2 K): 0.6120
- Activity coefficient (γi) ([1]; DMSO mass fraction m = 0.8, T = 313.2 K): 0.6808
- Activity coefficient (γi) ([1]; DMSO mass fraction m = 0.8, T = 318.2 K): 0.7771
- Activity coefficient (γi) ([1]; DMSO mass fraction m = 0.9, T = 298.2 K): 0.1392
- Activity coefficient (γi) ([1]; DMSO mass fraction m = 0.9, T = 303.2 K): 0.1658
- Activity coefficient (γi) ([1]; DMSO mass fraction m = 0.9, T = 308.2 K): 0.1932
- Activity coefficient (γi) ([1]; DMSO mass fraction m = 0.9, T = 313.2 K): 0.2245
- Activity coefficient (γi) ([1]; DMSO mass fraction m = 0.9, T = 318.2 K): 0.2572
- Activity coefficient (γi) ([1]; DMSO mass fraction m = 1.0, T = 298.2 K): 0.0455
- Activity coefficient (γi) ([1]; DMSO mass fraction m = 1.0, T = 303.2 K): 0.0547
- Activity coefficient (γi) ([1]; DMSO mass fraction m = 1.0, T = 308.2 K): 0.0646
- Activity coefficient (γi) ([1]; DMSO mass fraction m = 1.0, T = 313.2 K): 0.0771
- Activity coefficient (γi) ([1]; DMSO mass fraction m = 1.0, T = 318.2 K): 0.0894
- Apparent standard Gibbs energy ΔsolG^0 [2, 3]: 8.929 kcal/mol
- Apparent standard enthalpy ΔsolH^0 [2, 3]: 12.6 kcal/mol
- Apparent standard entropy ΔsolS^0 [2, 3]: 49.82 J mol^−1 K^−1
- Apparent standard Gibbs energy ΔsolG^0 [2, 4]: 8.224 kcal/mol
- Apparent standard enthalpy ΔsolH^0 [2, 4]: 11.48 kcal/mol
- Apparent standard entropy ΔsolS^0 [2, 4]: 44.21 J mol^−1 K^−1
- Apparent standard Gibbs energy ΔsolG^0 [2, 5]: 7.533 kcal/mol
- Apparent standard enthalpy ΔsolH^0 [2, 5]: 10.47 kcal/mol
- Apparent standard entropy ΔsolS^0 [2, 5]: 39.92 J mol^−1 K^−1
- Apparent standard Gibbs energy ΔsolG^0 [2, 6]: 6.84 kcal/mol
- Apparent standard enthalpy ΔsolH^0 [2, 6]: 9.696 kcal/mol
- Apparent standard entropy ΔsolS^0 [2, 6]: 38.80 J mol^−1 K^−1
- Apparent standard Gibbs energy ΔsolG^0 [2, 7]: 6.152 kcal/mol
- Apparent standard enthalpy ΔsolH^0 [2, 7]: 8.559 kcal/mol
- Apparent standard entropy ΔsolS^0 [2, 7]: 32.71 J mol^−1 K^−1
- Apparent standard Gibbs energy ΔsolG^0 [2, 8]: 5.452 kcal/mol
- Apparent standard enthalpy ΔsolH^0 [2, 8]: 7.835 kcal/mol
- Apparent standard entropy ΔsolS^0 [2, 8]: 32.35 J mol^−1 K^−1
- Apparent standard Gibbs energy ΔsolG^0 [2, 9]: 4.768 kcal/mol
- Apparent standard enthalpy ΔsolH^0 [2, 9]: 6.697 kcal/mol
- Apparent standard entropy ΔsolS^0 [2, 9]: 26.18 J mol^−1 K^−1
- Apparent standard Gibbs energy ΔsolG^0 [2, 10]: 4.07 kcal/mol
- Apparent standard enthalpy ΔsolH^0 [2, 10]: 5.779 kcal/mol
- Apparent standard entropy ΔsolS^0 [2, 10]: 23.21 J mol^−1 K^−1
- Apparent standard Gibbs energy ΔsolG^0 [2, 11]: 3.382 kcal/mol
- Apparent standard enthalpy ΔsolH^0 [2, 11]: 4.656 kcal/mol
- Apparent standard entropy ΔsolS^0 [2, 11]: 17.30 J mol^−1 K^−1
- Apparent standard Gibbs energy ΔsolG^0 [2, 12]: 2.674 kcal/mol
- Apparent standard entropy ΔsolS^0 [2, 12]: 9.05 J mol^−1 K^−1
- Apparent standard Gibbs energy ΔsolG^0 [2, 13]: 2 kcal/mol
- Apparent standard enthalpy ΔsolH^0 [2, 13]: 2.732 kcal/mol
- Apparent standard entropy ΔsolS^0 [2, 13]: 9.91 J mol^−1 K^−1
- Solvation-driven process (enthalpy–entropy compensation) ([2]; all cosolvent combinations and pure solvents, Thm = 308 K): enthalpy-driven
- Nature of dissolution ([2]; all cosolvent combinations, including neat solvents): endothermic and entropy-driven
